Laboratory results reported in ChEMBL document CHEMBL1201862, “PubChem BioAssay data set” (2004).
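Where inhibition never reached the appropriate level, the endpoint shown equals the highest concentration tested. Otherwise, values were interpolated linearly from a five-concentration, 48-hour dose response in 96-well plates. The concentration for 50% growth inhibition is given as GI50.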 Activity calls are given as the source filed them. Rule as the data show it: active = GI50 up to about 1.1 µM and inactive = higher.

Assays:
Assay in all cases: growth of human tumour cells (NCI), 48 h
[1] = tested on: IGROV-1
[2] = tested on: EKVX
[3] = tested on: UACC-257
[4] = tested on: OVCAR-8
[5] = tested on: HCT-116
[6] = tested on: A549
[7] = tested on: OVCAR-5
[8] = tested on: HOP-62
[9] = tested on: NCI-H460
[10] = tested on: NCI/ADR-RES
[11] = tested on: SF-268
[12] = tested on: RXF 393
[13] = tested on: U-251
[14] = tested on: TK-10
[15] = tested on: SN12C
[16] = tested on: Malme-3M
[17] = tested on: SW-620
[18] = tested on: KM12
[19] = tested on: SK-MEL-5
[20] = tested on: SNB-19

Measured: GI50

CCC1(O)CC(O)c2c(O)c3c(c(O)c2C1C(=O)OC)C(=O)c1cccc(O)c1C3=O (stereo not given)
inactive: [1] 1.39 µM | [2] 2.18 µM | [3] 3.65 µM | [4] 1.63 µM | [5] 2.89 µM | [6] 3.64 µM | [7] 4.86 µM | [8] 3.22 µM | [9] 1.7 µM | [11] 2.44 µM | [12] 7.67 µM | [13] 3.74 µM | [14] 7.67 µM | [15] 2.92 µM | [16] 1.94 µM | [17] 4.67 µM | [19] 1.84 µM | [20] 2.45 µM
active: [10] 0.656 µM | [18] 1.1 µM

CCOC(=O)/C(SC#N)=C(/N)N1CCCC1
inactive: [1] > 100 µM | [2] > 100 µM | [3] > 100 µM | [4] > 100 µM | [5] > 100 µM | [6] > 100 µM | [7] > 100 µM | [8] > 100 µM | [9] > 100 µM | [10] > 100 µM | [11] > 100 µM | [12] > 100 µM | [13] > 100 µM | [14] > 100 µM | [15] > 100 µM | [16] > 100 µM | [17] > 100 µM | [18] > 100 µM | [19] > 100 µM | [20] > 100 µM

COC(=O)[C@H](Cc1ccccc1)NP(=O)(O)OCC1C=CC(n2cc(C)c(=O)[nH]c2=O)O1 (stereo not given in full)
inactive: [1] > 100 µM | [2] > 100 µM | [3] > 100 µM | [4] > 100 µM | [5] > 100 µM | [6] > 100 µM | [7] > 100 µM | [8] > 100 µM | [9] > 100 µM | [10] > 100 µM | [11] > 100 µM | [12] > 100 µM | [13] > 100 µM | [14] > 100 µM | [15] > 100 µM | [16] > 100 µM | [17] > 100 µM | [18] > 100 µM | [19] > 100 µM | [20] > 100 µM

CCOC(=O)c1c(-c2cccc(Cl)c2)c(C(=O)OC)c(C)c2sc(C=O)nc12
inactive: [1] 17.5 µM | [2] 16.6 µM | [3] 31.8 µM | [4] 19.8 µM | [5] 7.14 µM | [6] 49.9 µM | [7] 17.5 µM | [8] 13.6 µM | [9] 19.5 µM | [10] 25.8 µM | [11] 19 µM | [12] 23.8 µM | [13] 17.7 µM | [14] 29.3 µM | [15] 16.6 µM | [16] 19.3 µM | [17] 48.4 µM | [18] 16.7 µM | [19] 14.3 µM | [20] 98.9 µM

Oc1nc(-c2ccc3ccccc3c2)nc2ccccc12
active: [14] 0.771 µM
inactive: [1] 19.8 µM | [2] 43.5 µM | [3] 74.6 µM | [4] 12.7 µM | [5] 18.7 µM | [6] 26.9 µM | [7] 35.2 µM | [8] 14.4 µM | [9] 21.9 µM | [10] 20 µM | [11] 26.3 µM | [12] 25.4 µM | [13] 25.5 µM | [15] 54.1 µM | [16] 33.6 µM | [17] > 100 µM | [18] > 100 µM | [19] > 100 µM | [20] 19.1 µM

CN(C)c1cccc(/C=C(\C#N)c2ccccc2)c1
active: [1] 1.11 µM | [3] 1.01 µM | [4] 1.01 µM | [5] 0.396 µM | [8] 0.164 µM | [9] 0.527 µM | [10] 0.257 µM | [12] 0.706 µM | [13] 0.687 µM | [14] 0.944 µM | [17] 0.316 µM | [18] 0.1 µM | [19] 0.371 µM
inactive: [2] 2.14 µM | [6] 2.61 µM | [7] 3.72 µM | [11] 8.77 µM | [15] 1.15 µM | [16] 1.95 µM | [20] 1.72 µM

Clc1ccc(OCc2nnc3sc(-c4ccc(-c5ccc(Cl)cc5Cl)o4)nn23)c(Cl)c1
inactive: [1] 17.8 µM | [2] 14.7 µM | [3] 18.4 µM | [4] 17.9 µM | [5] 15.7 µM | [6] 21.6 µM | [7] 20 µM | [8] 15.4 µM | [9] 20.4 µM | [10] 20 µM | [11] 15.6 µM | [12] 14.8 µM | [13] 19.8 µM | [14] 19.5 µM | [15] 18.9 µM | [16] 18.8 µM | [17] 34.7 µM | [18] 32.6 µM | [19] 20.1 µM | [20] 22.1 µM

CNC(=S)N/N=C(\C)c1nc2cccnc2[nH]1
inactive: [1] 62.7 µM | [2] 47 µM | [3] 60.8 µM | [4] 48.9 µM | [5] 30 µM | [6] 31.1 µM | [7] 30.8 µM | [8] 25.6 µM | [9] 29.9 µM | [10] 15.3 µM | [11] 37.7 µM | [12] 62.2 µM | [13] 39.8 µM | [14] 32.5 µM | [15] 98.2 µM | [16] > 70.5 µM | [17] 52.8 µM | [18] 46.6 µM | [19] 29.2 µM | [20] > 53.8 µM

CC1(C)C=CC(=O)C(O)C(C)(C)C1=O (stereo not given)
inactive: [1] 89.1 µM | [2] > 100 µM | [3] 18.8 µM | [4] 59 µM | [5] 54.5 µM | [6] > 100 µM | [7] > 100 µM | [8] 53.6 µM | [9] 29.7 µM | [10] 72.4 µM | [11] 30.1 µM | [12] 66.5 µM | [13] > 100 µM | [14] 51.5 µM | [15] > 100 µM | [16] 17.5 µM | [17] 77.6 µM | [18] 65.8 µM | [19] > 100 µM | [20] > 100 µM

COc1ccc2c(c1)Cc1c(NCCN(C)C)ccc(C(=O)NCCCN(C)CCCNC(=O)c3ccc(NCCN(C)C)c4c3Nc3ccc(OC)cc3C4)c1N2
active: [1] < 0.01 µM | [2] 0.116 µM | [3] 0.0303 µM | [4] < 0.01 µM | [5] < 0.01 µM | [6] < 0.01 µM | [7] < 0.0248 µM | [8] < 0.01 µM | [9] < 0.01 µM | [11] < 0.01 µM | [12] 0.154 µM | [13] < 0.01 µM | [14] 0.0724 µM | [15] < 0.01 µM | [16] < 0.01 µM | [17] < 0.0158 µM | [18] < 0.01 µM | [19] 0.0299 µM | [20] < 0.01 µM
inactive: [10] 4.2 µM
